Experimental data: patent US12522836B2, “Nonhuman animal and use for same” (Inter-University Research Institute Corporation Research …, priority 2019, dated 2026)

How the values were obtained:
mAID-EGFP reporters = biological target: T1, mAID-EGFP reporters (Oryza sativa subsp. japonica, UniProt Q7XVM8, F74G); assay: Reporter removal in transgenic mice expressing OsTIR1(F74G) and mAID-EGFP reporter; format: in vivo
T1 construct: expressed in transfected cells; host or cells: transgenic mice (organs and E13.5 embryos)
Description: In order to further confirm whether the AID2 system functioned in a living body of mice, an attempt to establish transgenic mice expressing OsTIR1(WT) or OsTIR1(F74G) together with mAID-EGFP reporters was performed. As shown in FIG. 11(A), OsTIR1(WT) was confirmed to cause embryonic lethality. In contrast, the establishment of a plurality of mouse strains expressing OsTIR1(F74G) and reporters was confirmed (refer to FIG. 11(A).
Two adult female transgenic mice from the same TG strain were used to remove reporters in a plurality of organs.
First, as shown in FIG. 11(B), the expression of reporters in the ovaries and fallopian tubes surgically removed from untreated transgenic mice was confirmed.
Subsequently, pseudo-administration is performed on one mouse and 10 mg/kg 5-ph-IAA was intraperitoneally administered to the other mouse. […] The same data was obtained for adult male mice derived from the same TG strain.
Finally, the expression of the reporter in embryos was examined to confirm a rate of removal of a target protein using the AID2 system in vivo. 5 mg/kg of 5-Ph-IAA was intraperitoneally administered to pregnant females with E13.5 embryos. As shown in FIG. 11(D), a reporter signal disappeared within 1 hour after administration and rapid removal of the reporter in vivo was confirmed.

[1] = test system: OsTIR1(F74A)/mAID-EGFP-NLS-expressing cells; assay: Reversibility of the AID2 system: reporter recovery after removal of 5-Ph-IAA; format: cell-based; conditions: medium replaced with medium without 5-Ph-IAA
[2] = biological target: T2, OsTIR1(F74G)/DHC1-mAID-Clover expressing cell (Oryza sativa subsp. japonica, UniProt Q7XVM8, F74G); assay: Degradation induction test of DHC1 (microscopy, Western blotting); format: cell-based, human
T2 construct: expressed in transfected cells; host or cells: HCT116 (OsTIR1 at AAVS1 locus; knock-in at the endogenous DHC1 gene)
From the text: In the HCT116 cell, an OsTIR1(WT) gene or OsTIR1(F74G) gene was introduced into an AAVS1 gene locus, which is a safe harbor site, using a CRISPR/Cas system, and an OsTIR1(WT)-expressed HCT116 cell or OsTIR1(F74G)-expressed HCT116 cell was constructed.
A plasmid vector having mAID, clover and a neomycin resistance gene and having a homologous sequence with respect to a DHC1 gene so as to sandwich mAID and the neomycin resistance gene was introduced into the OsTIR1(WT)-expressed HCT116 cell or OsTIR1(F74G)-expressed HCT116 cell using a CRISPR/Cas9 system, and homologous recombination with the endogenous DHC1 gene was performed. Next, after selection by G418, the formed colony was dyed using crystal violet. “DHC1” is the abbreviation for dynein heavy chain 1.
A degradation induction test of DHC1 was performed using the HCT116 cell expressing OsTIR1(F74G) on which homologous recombination had been performed in the above-described section 2 (hereinafter, referred to as “OsTIR1(F74G)/DHC1-mAID-Clover expressing cell”).
The compound indicated by the formula (I-2) (also referred to as 5-Ph-IAA) was added to the OsTIR1(F74G)/DHC1-mAID-Clover expressing cell, and the appearance of the cell after 24 hours was observed (FIG. 4(A)).
Furthermore, the degradation of DHC1 was confirmed by Western blotting (FIG. 4(B)).

TOP2A-mAC xenografts = biological target: T3, TOP2A-mAC xenografts (Oryza sativa subsp. japonica, UniProt Q7XVM8, F74G); assay: TOP2A-mAC cell xenograft tumor growth in nude mice; format: in vivo; conditions: 1, 3 and 10 mg/kg intraperitoneally daily, day 7 to day 14
T3 construct: expressed in transfected cells; host or cells: HCT116 CMV-OsTIR1(F74G), xenografted into nude mice
Description: (§1) Subsequently, mAID-BRD4 cells or TOP2A-mAC cells were subcutaneously transplanted into nude mice and xenograft tumors were formed in 1 week. After that, 0, 1, 3, and 10 mg/kg of 5-Ph-IAA were intraperitoneally administered daily for an additional week (day 7 to day 14). […] It was confirmed that, when the AID2 system is used, mAID-BRD4 and TOP2A-mAC were successfully removed in a living body of mice, causing tumor suppression.

[3] = biological target: T4, OsTIR1(F74G)/mAID-EGFP-NLS expressing cell (Oryza sativa subsp. japonica, UniProt Q7XVM8, F74G); assay: FACS analysis of degradation of mAID-EGFP-NLS after addition of auxin analog; format: cell-based, human; conditions: Example 2; 50 nM, 100 nM, 500 nM or 1 μM, 24 hours; compared with OsTIR1(WT) cell plus auxin
T4 construct: expressed in transfected cells; host or cells: HCT116
Description: An HCT116 cell (human colon adenocarcinoma-derived cell) having DNA in which an OsTIR1(WT) gene or OsTIR1(F74G) gene and an mAID-EGFP (green fluorescent protein)-NLS (nuclear localization signal) gene were encoded through a P2A sequence inserted onto a chromosome by a transposon (hereinafter, referred to as “OsTIR1(WT)/mAID-EGFP-NLS expressing cell” or “OsTIR1(F74G)/mAID-EGFP-NLS expressing cell”) was prepared (refer to FIG. 1).
The auxin analog (concentration in culture medium: […]) was added to the OsTIR1(F74G)/mAID-EGFP-NLS expressing cell and cultured for 24 hours. In addition, as a control, a cell containing an auxin added to the OsTIR1(WT)/mAID-EGFP-NLS expressing cell was also prepared.
After 24 hours from the addition of the auxin analog, the cells were collected, and FACS analysis was performed.
An HCT116 cell (human colon adenocarcinoma-derived cell) in which a plasmid containing an OsTIR1(WT) gene or OsTIR1(F74G) gene was introduced and an mAID-EGFP (green fluorescent protein)-NLS (nuclear localization signal) gene was inserted onto a chromosome (hereinafter, referred to as “OsTIR1(WT)/mAID-EGFP-NLS expressing cell” or “OsTIR1(F74G)/mAID-EGFP-NLS expressing cell”) was prepared (refer to FIG. 1).
The auxin analog (concentration in culture medium: 0, 50 nM, 100 nM, 500 nM or 1 μM) was added to the OsTIR1(F74G)/mAID-EGFP-NLS expressing cell and cultured for 24 hours. […]

mAID-EGFP-CENPH = biological target: T5, mAID-EGFP-CENPH (Oryza sativa subsp. japonica, UniProt Q7XVM8, F74G); assay: Western blotting of mAID-EGFP-CENPH degradation in HeLa cell (transposon vector + CRISPR-KO system); format: cell-based, human; conditions: anti-CENPH antibody, endogenous CENPH knocked out
T5 construct: P2A linker (self-cleaving; remnant); expressed in transfected cells; host or cells: HeLa
From the text: (§2) In this degradation system, (1) a transposon vector in which an OsTIR1(F74G) gene and an mAID-target gene are connected by a P2A linker gene and (2) a CRISPR-KO vector for knocking out an endogenous target gene containing gRNA and a Cas9 gene are contained.
(§3) In this degradation system, the OsTIR1(F74G) gene and the mAID-target gene in a genome are integrated by the transposon vector, and an endogenous target gene is knocked out by the CRISPR-KO vector.
(§4) The transposon vector in which an OsTIR1(F74G) gene and an mAID-EGFP-CENPH or mAID-EGFP-POLD1 target gene were connected by a P2A linker gene was constructed, and this vector was introduced into a HeLa cell together with the CRISPR-KO vector targeting an endogenous CENPH or POLD1 gene. 5-Ph-IAA was added to such a cell, and the degradation of the target protein was confirmed by Western blotting (FIG. 6).

mAID-EGFP-POLD1 = biological target: T6, mAID-EGFP-POLD1 (Oryza sativa subsp. japonica, UniProt Q7XVM8, F74G); assay: Western blotting of mAID-EGFP-POLD1 degradation in HeLa cell (transposon vector + CRISPR-KO system); format: cell-based, human; conditions: anti-POLD1 antibody, clones #1 to #3, endogenous POLD1 knocked out
T6 construct: P2A linker (self-cleaving; remnant); expressed in transfected cells; host or cells: HeLa
From the text: as §2, §3, §4

mAID-BRD4 xenografts = biological target: T7, mAID-BRD4 xenografts (Oryza sativa subsp. japonica, UniProt Q7XVM8, F74G); assay: mAID-BRD4 cell xenograft tumor growth in nude mice; format: in vivo
T7 construct: expressed in transfected cells; host or cells: HCT116 CMV-OsTIR1(F74G), xenografted into nude mice
Description: as §1
Furthermore, 3 mg/kg of 5-Ph-IAA was orally administered to nude mice in which mAID-BRD4 cells were xenografted. FIG. 13(A) is a diagram showing an oral administration schedule of 5-Ph-IAA.

[4] = test system: HCT116 cells expressing OsTIR1(F74G); assay: Control xenograft of HCT116 cells expressing OsTIR1(F74G) in nude mice; format: in vivo; conditions: 1, 3 and 10 mg/kg intraperitoneally daily, day 7 to day 14; control without degron-tagged target
[5] = Toxicity evaluation in mice (body weight); format: in vivo; conditions: 1, 3 and 10 mg/kg intraperitoneally daily for 1 week
Description: Toxicity was evaluated by intraperitoneally administering 0, 1, 3, and 10 mg/kg of 5-Ph-IAA daily for 1 week. As shown in FIG. 7(B), a change in body weight of the mice which had been subjected to the administration was not observed.

## O=C(O)Cc1c[nH]c2ccc(-c3ccccc3)cc12 [5-Ph-IAA, 5-phenyl-indole 3-acetic acid]
mAID-EGFP reporters; 5 mg/kg intraperitoneally to pregnant females with E13.5 embryos
  time to disappearance of reporter signal in embryos: ≤ 1 h
mAID-EGFP reporters; 10 mg/kg intraperitoneally, 6 hours after administration, ovary, fallopian tubes, small intestine, heart, bladder, brain, adult female
  expression of the reporter in organs: significantly reduced
[1]
  time to full restoration of reporter expression after medium replacement: 3 h
[2]; 24 hours after addition
  appearance of the cell (mitotic accumulation): accumulation of cells in the mitotic period was observed
  degradation of DHC1-mAID-Clover fused protein (microscopic images): degraded a DHC1-mAID-Clover fused protein
[2]; clones #1 to #3
  degradation of DHC1 and mAID by Western blotting: degradation of DHC1 and mAID was confirmed
TOP2A-mAC xenografts
  tumor suppression: a similar tendency was observed
[3]
  degradation of GFP (FACS) at low concentrations: functioned at a considerably low concentration
mAID-EGFP-CENPH
  degradation of mAID-EGFP-CENPH by Western blotting: degradation of mAID-EGFP-CENPH was confirmed
mAID-EGFP-POLD1
  degradation of mAID-EGFP-POLD1 by Western blotting: degradation of mAID-EGFP-POLD1 was confirmed
mAID-BRD4 xenografts; 3 mg/kg orally
  tumor suppression: significant tumor suppression
mAID-BRD4 xenografts; 1, 3 and 10 mg/kg intraperitoneally daily, day 7 to day 14
  tumor suppression: significant tumor suppression
[4]
  tumor suppression: the tumor suppression was not observed
[5]
  change in body weight: not observed
